Here are results for 2 compounds from PMC6886544.

Structures are written as SMILES.

One series has as its target ErbB4 (Homo sapiens, UniProt Q15303). Briefly: SelectScreen kinase profiling, ErbB4. As to conditions: mean ± SD of one measurement in duplicates. The series is classed as biochemical. The procedure:
(§1) Kinase profiling of compound 17a at a concentration of 1 µM generated with the SelectScreen® Profiling Service from Life Technologies.
(§2) Figure S2. Kinase profiling of compound 17a, Illustration as waterfall plot. 9 Kinases harboring a Cysteine isostructural to Cys797 in EGFR are highlighted
(§3) Kinase % inhibition Kinase % inhibition […]
(§4) aValues are the mean ± SD of one measurement in duplicates; bKinases harboring a Cysteine isostructural to Cys797 […]
(§5) (1 picture or pasted object on this page, not shown here)

A further series deals with ACVR1B (Homo sapiens, UniProt P36896). Put plainly: SelectScreen kinase profiling, ACVR1B. The series is classed as biochemical. The settings on record: mean ± SD of one measurement in duplicates. The protocol: as §1, §2, §3, §4, §5
Another series deals with EPHB2 (Homo sapiens, UniProt P29323). Briefly: SelectScreen kinase profiling, EPHB2. The series is classed as biochemical. The settings on record: mean ± SD of one measurement in duplicates. The procedure:
as §1, §2, §3, §4, §5

The target of the next series is BMX (Homo sapiens, UniProt P51813). Put plainly: SelectScreen kinase profiling, BMX. The series is classed as biochemical. As to conditions: mean ± SD of one measurement in duplicates. The protocol:
as §1, §2, §3, §4, §5

The target of the next series is BLK (Homo sapiens, UniProt P51451). Put plainly: SelectScreen kinase profiling, BLK. The settings on record: mean ± SD of one measurement in duplicates. The series is classed as biochemical. The protocol:
as §1, §2, §3, §4, §5

In the next series the target is EGFR-T790M (Homo sapiens, UniProt P00533, T790M). Briefly: SelectScreen kinase profiling, EGFR-T790M. The settings on record: mean ± SD of one measurement in duplicates. The series is classed as biochemical. The procedure: as §1, §2, §3, §4, §5
The target of a further series is ABL1-E255K (Homo sapiens, UniProt P00519, E255K). Briefly: SelectScreen kinase profiling, ABL1-E255K. The settings on record: mean ± SD of one measurement in duplicates. The series is classed as biochemical. The procedure: as §1, §2, §3, §4, §5
Another series concerns the target ABL1-G250E (Homo sapiens, UniProt P00519, G250E). Put plainly: SelectScreen kinase profiling, ABL1-G250E. Format: biochemical. The settings on record: mean ± SD of one measurement in duplicates. The procedure:
as §1, §2, §3, §4, §5

Another series addresses ABL1-Y253F (Homo sapiens, UniProt P00519, Y253F). Briefly: SelectScreen kinase profiling, ABL1-Y253F. As to conditions: mean ± SD of one measurement in duplicates. The series is classed as biochemical. The procedure:
as §1, §2, §3, §4, §5

Another series in a line: Plasma stability, mouse. The series is classed as in vitro ADME. The settings on record: 5 µM, 1 h, 37 °C.

Chain of ErbB4 (Q15303 26-1308): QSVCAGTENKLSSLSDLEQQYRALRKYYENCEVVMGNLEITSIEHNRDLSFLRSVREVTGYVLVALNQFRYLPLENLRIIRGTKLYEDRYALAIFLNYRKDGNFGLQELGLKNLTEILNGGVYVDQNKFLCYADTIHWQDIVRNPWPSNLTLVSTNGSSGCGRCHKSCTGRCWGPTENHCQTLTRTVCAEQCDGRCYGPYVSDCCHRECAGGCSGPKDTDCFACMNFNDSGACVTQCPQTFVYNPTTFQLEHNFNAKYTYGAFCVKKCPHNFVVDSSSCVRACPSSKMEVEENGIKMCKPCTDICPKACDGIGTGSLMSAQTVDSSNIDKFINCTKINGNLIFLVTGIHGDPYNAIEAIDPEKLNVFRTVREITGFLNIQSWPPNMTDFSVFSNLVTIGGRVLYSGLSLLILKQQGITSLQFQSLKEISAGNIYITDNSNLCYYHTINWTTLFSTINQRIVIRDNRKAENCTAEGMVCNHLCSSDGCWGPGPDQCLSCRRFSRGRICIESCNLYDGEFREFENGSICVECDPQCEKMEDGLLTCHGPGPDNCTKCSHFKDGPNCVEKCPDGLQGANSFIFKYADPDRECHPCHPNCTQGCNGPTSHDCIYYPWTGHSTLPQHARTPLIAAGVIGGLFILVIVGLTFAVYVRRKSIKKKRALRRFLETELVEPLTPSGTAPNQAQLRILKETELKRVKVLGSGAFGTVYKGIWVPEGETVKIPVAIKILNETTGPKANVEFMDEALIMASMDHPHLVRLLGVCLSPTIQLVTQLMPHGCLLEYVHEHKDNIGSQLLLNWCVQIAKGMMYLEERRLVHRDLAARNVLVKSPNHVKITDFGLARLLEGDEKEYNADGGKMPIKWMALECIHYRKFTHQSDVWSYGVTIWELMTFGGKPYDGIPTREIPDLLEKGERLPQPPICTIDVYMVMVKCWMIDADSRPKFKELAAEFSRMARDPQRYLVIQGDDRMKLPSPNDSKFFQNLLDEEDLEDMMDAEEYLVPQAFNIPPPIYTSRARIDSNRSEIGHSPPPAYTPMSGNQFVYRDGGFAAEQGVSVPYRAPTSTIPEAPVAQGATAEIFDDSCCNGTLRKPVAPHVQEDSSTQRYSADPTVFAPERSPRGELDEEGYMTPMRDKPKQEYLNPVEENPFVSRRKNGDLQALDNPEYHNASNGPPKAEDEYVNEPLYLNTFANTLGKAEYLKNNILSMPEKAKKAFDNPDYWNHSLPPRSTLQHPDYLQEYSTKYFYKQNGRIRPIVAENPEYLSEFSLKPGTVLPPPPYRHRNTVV
Chain of EPHB2 (P29323 19-1055): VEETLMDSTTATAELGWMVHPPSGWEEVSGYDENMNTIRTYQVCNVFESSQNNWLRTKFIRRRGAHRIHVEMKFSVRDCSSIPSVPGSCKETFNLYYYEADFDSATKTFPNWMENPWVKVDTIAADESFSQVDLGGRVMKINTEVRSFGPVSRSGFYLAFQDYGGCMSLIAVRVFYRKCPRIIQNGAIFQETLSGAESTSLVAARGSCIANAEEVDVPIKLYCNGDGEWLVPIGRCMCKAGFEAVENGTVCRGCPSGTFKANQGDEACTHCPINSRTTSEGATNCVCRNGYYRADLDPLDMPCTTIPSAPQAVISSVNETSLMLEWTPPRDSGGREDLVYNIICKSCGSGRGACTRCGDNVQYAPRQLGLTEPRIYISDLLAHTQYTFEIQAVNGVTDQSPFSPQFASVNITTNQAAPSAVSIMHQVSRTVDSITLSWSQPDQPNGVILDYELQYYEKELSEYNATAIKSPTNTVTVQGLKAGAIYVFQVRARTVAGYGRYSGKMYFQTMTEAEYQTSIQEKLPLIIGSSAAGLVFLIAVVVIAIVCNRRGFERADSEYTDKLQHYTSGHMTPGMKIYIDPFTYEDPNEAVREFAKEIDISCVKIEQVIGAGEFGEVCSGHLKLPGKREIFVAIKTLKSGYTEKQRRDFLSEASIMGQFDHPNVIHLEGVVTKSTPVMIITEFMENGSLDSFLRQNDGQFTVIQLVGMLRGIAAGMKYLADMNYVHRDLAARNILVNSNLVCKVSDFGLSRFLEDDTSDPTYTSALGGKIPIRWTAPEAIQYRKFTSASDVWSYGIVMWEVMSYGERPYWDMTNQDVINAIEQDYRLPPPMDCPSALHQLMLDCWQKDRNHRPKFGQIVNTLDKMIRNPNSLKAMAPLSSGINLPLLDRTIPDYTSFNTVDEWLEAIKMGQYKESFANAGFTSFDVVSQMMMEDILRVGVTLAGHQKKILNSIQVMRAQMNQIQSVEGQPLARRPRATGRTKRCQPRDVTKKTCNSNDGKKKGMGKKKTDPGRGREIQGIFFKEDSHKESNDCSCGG
Chain of ACVR1B (P36896 24-505): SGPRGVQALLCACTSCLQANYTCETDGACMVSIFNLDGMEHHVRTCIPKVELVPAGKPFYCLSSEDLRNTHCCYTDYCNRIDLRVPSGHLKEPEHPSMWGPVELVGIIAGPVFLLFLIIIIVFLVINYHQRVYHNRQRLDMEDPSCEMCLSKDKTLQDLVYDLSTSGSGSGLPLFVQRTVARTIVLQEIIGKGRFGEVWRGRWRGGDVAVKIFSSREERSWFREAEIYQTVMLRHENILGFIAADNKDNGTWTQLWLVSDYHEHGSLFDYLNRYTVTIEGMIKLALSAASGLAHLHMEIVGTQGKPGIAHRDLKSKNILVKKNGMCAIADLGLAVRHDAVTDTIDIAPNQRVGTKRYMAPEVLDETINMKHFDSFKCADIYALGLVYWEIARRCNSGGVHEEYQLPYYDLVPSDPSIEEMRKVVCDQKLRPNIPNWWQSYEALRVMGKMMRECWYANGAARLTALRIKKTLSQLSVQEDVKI
Chain of BMX (P51813 whole entry): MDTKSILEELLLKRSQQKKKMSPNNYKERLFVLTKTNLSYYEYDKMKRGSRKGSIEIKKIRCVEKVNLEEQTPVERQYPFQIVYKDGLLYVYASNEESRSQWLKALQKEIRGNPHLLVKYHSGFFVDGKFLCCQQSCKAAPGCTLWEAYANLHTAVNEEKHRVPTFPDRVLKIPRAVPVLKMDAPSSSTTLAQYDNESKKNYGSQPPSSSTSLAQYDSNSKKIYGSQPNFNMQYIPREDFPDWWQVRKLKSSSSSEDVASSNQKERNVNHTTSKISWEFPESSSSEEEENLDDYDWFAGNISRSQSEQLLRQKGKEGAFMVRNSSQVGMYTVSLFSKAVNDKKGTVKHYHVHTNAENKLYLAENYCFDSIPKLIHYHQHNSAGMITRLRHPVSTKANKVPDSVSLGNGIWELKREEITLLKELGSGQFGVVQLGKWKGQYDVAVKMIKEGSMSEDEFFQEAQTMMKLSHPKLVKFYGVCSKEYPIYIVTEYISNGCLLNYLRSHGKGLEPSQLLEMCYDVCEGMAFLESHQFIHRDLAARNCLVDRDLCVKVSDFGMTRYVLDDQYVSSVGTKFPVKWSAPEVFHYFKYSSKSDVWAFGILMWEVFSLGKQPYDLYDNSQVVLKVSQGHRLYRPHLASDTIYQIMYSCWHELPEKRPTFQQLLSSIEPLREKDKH
Chain of EGFR-T790M (P00533 25-1210 T790M): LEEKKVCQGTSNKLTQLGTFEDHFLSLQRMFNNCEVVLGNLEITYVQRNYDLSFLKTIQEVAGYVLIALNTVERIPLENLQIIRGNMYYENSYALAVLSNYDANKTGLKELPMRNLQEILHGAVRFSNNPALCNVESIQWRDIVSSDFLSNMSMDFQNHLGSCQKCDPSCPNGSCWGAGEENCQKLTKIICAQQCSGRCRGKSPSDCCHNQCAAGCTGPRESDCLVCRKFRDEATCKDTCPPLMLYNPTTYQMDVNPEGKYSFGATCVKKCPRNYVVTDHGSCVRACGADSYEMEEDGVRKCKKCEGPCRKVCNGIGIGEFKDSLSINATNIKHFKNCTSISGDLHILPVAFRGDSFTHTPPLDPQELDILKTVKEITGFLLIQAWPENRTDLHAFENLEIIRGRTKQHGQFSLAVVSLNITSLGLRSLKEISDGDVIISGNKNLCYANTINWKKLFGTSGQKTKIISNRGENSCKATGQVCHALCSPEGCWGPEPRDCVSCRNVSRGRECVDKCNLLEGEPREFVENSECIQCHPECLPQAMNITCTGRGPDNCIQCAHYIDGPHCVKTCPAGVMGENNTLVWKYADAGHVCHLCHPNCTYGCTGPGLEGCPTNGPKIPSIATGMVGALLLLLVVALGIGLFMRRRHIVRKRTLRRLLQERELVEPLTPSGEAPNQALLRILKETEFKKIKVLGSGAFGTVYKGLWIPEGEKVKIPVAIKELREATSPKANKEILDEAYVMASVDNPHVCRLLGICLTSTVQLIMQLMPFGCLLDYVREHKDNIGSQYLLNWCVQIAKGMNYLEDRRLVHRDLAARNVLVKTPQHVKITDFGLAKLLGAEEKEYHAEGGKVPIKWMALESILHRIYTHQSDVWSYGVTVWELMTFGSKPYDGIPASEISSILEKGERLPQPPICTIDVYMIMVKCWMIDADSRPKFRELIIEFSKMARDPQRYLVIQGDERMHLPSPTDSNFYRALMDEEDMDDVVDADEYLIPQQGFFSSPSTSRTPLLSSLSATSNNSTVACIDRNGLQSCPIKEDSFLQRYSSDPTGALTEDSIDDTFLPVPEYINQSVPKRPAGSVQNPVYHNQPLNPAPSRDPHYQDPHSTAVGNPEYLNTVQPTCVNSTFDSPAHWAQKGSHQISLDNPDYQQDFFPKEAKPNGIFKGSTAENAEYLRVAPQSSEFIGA

As to `C=CC(=O)Nc1cccc(-c2c(-c3ccc(CN4CCN(C)CC4)cc3)[nH]c3ncnc(OC)c23)c1` [Compound 17a], the inhibition (in general, the relative decrease from the control value, in per cent) at 1 µM is 100 ± 1% on ErbB4; 89% against ACVR1B; 72 ± 3% against EPHB2; 89 ± 1% against BMX; 99 ± 1% against BLK; 89 ± 2% against EGFR-T790M. For the same compound, the inhibition at 1 µM was 86% against ABL1-E255K, 96% on ABL1-G250E and 94% against ABL1-Y253F.

Turning to `C=CC(=O)Nc1cccc(-c2c(-c3ccc(N4CCN(C)CC4)cc3)[nH]c3ncnc(OCC(C)C)c23)c1` [Compound 19h], in “Plasma stability, mouse”, the Plasma stability was 100 %remain.
